Data taken from PubChem BioAssay AID2060625 (Molecular Pharmacology Branch, DTP, NCI, 2025).

Tested on: 186277-243-T-J2-PDC spheroids with HUVEC/MSC, viability
Experiment: Anticancer human tumor 186277-243-T-J2-PDC patient-derived colon adenocarcinoma cell line growth inhibition [CLK]
Settings: for IC50: curve of first compound; for viability, T/C: stronger effect = lower value
Summary of the method: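 Multi-cell-type spheroids combined patient-derived tumor cells with HUVEC endothelial cells and human mesenchymal stem cells. Paired agents were dosed in half-log steps down from about clinical Cmax, or from 10 microM where Cmax was unknown.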

[1] = second compound 0.0316 µM, first compound 0.0316 µM
[2] = second compound 0.0316 µM, first compound 0.1 µM
[3] = second compound 0.0316 µM, first compound 0.316 µM
[4] = second compound 0.0316 µM, first compound 1 µM
[5] = second compound 0.0316 µM, first compound 3.16 µM
[6] = second compound 0.0316 µM, first compound 10 µM
[7] = second compound 0.1 µM, first compound 0.0316 µM
[8] = second compound 0.1 µM, first compound 0.1 µM
[9] = second compound 0.1 µM, first compound 0.316 µM
[10] = second compound 0.1 µM, first compound 1 µM
[11] = second compound 0.1 µM, first compound 3.16 µM
[12] = second compound 0.1 µM, first compound 10 µM
[13] = second compound 0.316 µM, first compound 0.0316 µM
[14] = second compound 0.316 µM, first compound 0.1 µM
[15] = second compound 0.316 µM, first compound 0.316 µM
[16] = second compound 0.316 µM, first compound 1 µM
[17] = second compound 0.316 µM, first compound 3.16 µM
[18] = second compound 0.316 µM, first compound 10 µM
[19] = second compound 1 µM, first compound 0.0316 µM
[20] = second compound 1 µM, first compound 0.1 µM
[21] = second compound 1 µM, first compound 0.316 µM
[22] = second compound 1 µM, first compound 1 µM
[23] = second compound 1 µM, first compound 3.16 µM
[24] = second compound 1 µM, first compound 10 µM
[25] = second compound 3.16 µM, first compound 0.0316 µM
[26] = second compound 3.16 µM, first compound 0.1 µM
[27] = second compound 3.16 µM, first compound 0.316 µM
[28] = second compound 3.16 µM, first compound 1 µM
[29] = second compound 3.16 µM, first compound 3.16 µM
[30] = second compound 3.16 µM, first compound 10 µM
[31] = second compound 10 µM, first compound 0.0316 µM
[32] = second compound 10 µM, first compound 0.1 µM
[33] = second compound 10 µM, first compound 0.316 µM
[34] = second compound 10 µM, first compound 1 µM
[35] = second compound 10 µM, first compound 3.16 µM
[36] = second compound 10 µM, first compound 10 µM
[37] = second compound 0.0316 µM, first compound 0.00316 µM
[38] = second compound 0.0316 µM, first compound 0.01 µM
[39] = second compound 0.1 µM, first compound 0.00316 µM
[40] = second compound 0.1 µM, first compound 0.01 µM
[41] = second compound 0.316 µM, first compound 0.00316 µM
[42] = second compound 0.316 µM, first compound 0.01 µM
[43] = second compound 1 µM, first compound 0.00316 µM
[44] = second compound 1 µM, first compound 0.01 µM
[45] = second compound 3.16 µM, first compound 0.00316 µM
[46] = second compound 3.16 µM, first compound 0.01 µM
[47] = second compound 10 µM, first compound 0.00316 µM
[48] = second compound 10 µM, first compound 0.01 µM
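Also: compound exposure lasted seven days before readout.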
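For viability, T/C in this document: 100% = DMSO vehicle control wells.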

With `CC(CO)NC(=O)c1cc(-c2ccc(Cl)cc2)nn(-c2cnn(C)c2)c1=O` (stereo not drawn) + CN1CCN(c2cc(C(=O)Nc3cc4cc(-c5cnn(C)c5)ccc4cn3)ccn2)CC1 the IC50 (second compound 0.0316 µM) was > 10000 nM, the IC50 (second compound 0.1 µM) was > 10000 nM and the IC50 (second compound 0.316 µM) was < 31.6 nM. The IC50 (second compound 1 µM) was < 31.6 nM, the IC50 (second compound 3.16 µM) was < 31.6 nM and the IC50 (second compound 10 µM) was < 31.6 nM. For the same compound, the viability, T/C [1] was 118%, the viability, T/C [2] was 111% and the viability, T/C [3] was 96.7%. The viability, T/C [4] was 102%, the viability, T/C [5] was 106% and the viability, T/C [6] was 112%. It also gave a viability, T/C [7] of 106%, a viability, T/C [8] of 92.2% and a viability, T/C [9] of 106%. It also gave a viability, T/C [10] of 103%, a viability, T/C [11] of 107% and a viability, T/C [12] of 97.3%. It also gave a viability, T/C [13] of 25%, a viability, T/C [14] of 27.6% and a viability, T/C [15] of 29.6%. The viability, T/C [16] was 30.5%, the viability, T/C [17] was 25.2% and the viability, T/C [18] was 35.1%. It also gave a viability, T/C [19] of 0.55%, a viability, T/C [20] of 0.96% and a viability, T/C [21] of 0.66%. For the same compound, the viability, T/C [22] was 0.35%, the viability, T/C [23] was 0.36% and the viability, T/C [24] was 0.38%. The viability, T/C [25] was 0.96%, the viability, T/C [26] was 1.12% and the viability, T/C [27] was 0.88%. The viability, T/C [28] was 1.2%, the viability, T/C [29] was 1.15% and the viability, T/C [30] was 1.66%. The viability, T/C [31] was 0.72%, the viability, T/C [32] was 0.76% and the viability, T/C [33] was 0.63%. It also gave a viability, T/C [34] of 0.88%, a viability, T/C [35] of 0.8% and a viability, T/C [36] of 0.63%.

`CC(Nc1ccc2c(c1)OCCn1cc(N3C(=O)OCC3C(F)F)nc1-2)C(N)=O` (stereo not drawn) + CN1CCN(c2cc(C(=O)Nc3cc4cc(-c5cnn(C)c5)ccc4cn3)ccn2)CC1 was tested, and the IC50 (second compound 0.0316 µM) was 828 nM, the IC50 (second compound 0.1 µM) was 158 nM and the IC50 (second compound 0.316 µM) was < 31.6 nM. For the same compound, the IC50 (second compound 1 µM) was < 31.6 nM, the IC50 (second compound 3.16 µM) was < 31.6 nM and the IC50 (second compound 10 µM) was < 31.6 nM. It also gave a viability, T/C [1] of 87.7%, a viability, T/C [2] of 94.8% and a viability, T/C [3] of 59.2%. For the same compound, the viability, T/C [4] was 55.8%, the viability, T/C [5] was 46.4% and the viability, T/C [6] was 42.4%. It also gave a viability, T/C [7] of 71.8%, a viability, T/C [8] of 54.4% and a viability, T/C [9] of 42.3%. For the same compound, the viability, T/C [10] was 30.4%, the viability, T/C [11] was 19.4% and the viability, T/C [12] was 13.4%. It also gave a viability, T/C [13] of 20.5%, a viability, T/C [14] of 17.4% and a viability, T/C [15] of 7.85%. The viability, T/C [16] was 3.43%, the viability, T/C [17] was 2.25% and the viability, T/C [18] was 1.31%. The viability, T/C [19] was 0.25%, the viability, T/C [20] was 0.73% and the viability, T/C [21] was 0.91%. It also gave a viability, T/C [22] of 0.46%, a viability, T/C [23] of 0.47% and a viability, T/C [24] of 1.48%. For the same compound, the viability, T/C [25] was 1.24%, the viability, T/C [26] was 0.72% and the viability, T/C [27] was 1.34%. It also gave a viability, T/C [28] of 0.69%, a viability, T/C [29] of 0.82% and a viability, T/C [30] of 0.74%. The viability, T/C [31] was 0.96%, the viability, T/C [32] was 1.39% and the viability, T/C [33] was 0.74%. The viability, T/C [34] was 0.87%, the viability, T/C [35] was 0.87% and the viability, T/C [36] was 0.69%.

With `CCN1CCN(Cc2ccc(Nc3ncc(F)c(-c4cc(F)c5nc(C)n(C(C)C)c5c4)n3)nc2)CC1` + CN1CCN(c2cc(C(=O)Nc3cc4cc(-c5cnn(C)c5)ccc4cn3)ccn2)CC1 the IC50 (second compound 0.0316 µM) was > 1000 nM, the IC50 (second compound 0.1 µM) was > 1000 nM and the IC50 (second compound 0.316 µM) was < 3.16 nM. For the same compound, the IC50 (second compound 1 µM) was < 3.16 nM, the IC50 (second compound 3.16 µM) was < 3.16 nM and the IC50 (second compound 10 µM) was < 3.16 nM. It also gave a viability, T/C [37] of 85.5%, a viability, T/C [38] of 79.4% and a viability, T/C [1] of 95.7%. The viability, T/C [2] was 103%, the viability, T/C [3] was 99% and the viability, T/C [4] was 102%. For the same compound, the viability, T/C [39] was 78.9%, the viability, T/C [40] was 100% and the viability, T/C [7] was 91.4%. The viability, T/C [8] was 79.5%, the viability, T/C [9] was 71.9% and the viability, T/C [10] was 69.3%. It also gave a viability, T/C [41] of 25.5%, a viability, T/C [42] of 32.6% and a viability, T/C [13] of 28.9%. For the same compound, the viability, T/C [14] was 29.9%, the viability, T/C [15] was 36.8% and the viability, T/C [16] was 31.8%. The viability, T/C [43] was 0.99%, the viability, T/C [44] was 0.98% and the viability, T/C [19] was 0.48%. The viability, T/C [20] was 0.4%, the viability, T/C [21] was 1.43% and the viability, T/C [22] was 1.19%. It also gave a viability, T/C [45] of 2.53%, a viability, T/C [46] of 1.22% and a viability, T/C [25] of 0.9%. The viability, T/C [26] was 1.58%, the viability, T/C [27] was 1.39% and the viability, T/C [28] was 2.07%. The viability, T/C [47] was 0.79%, the viability, T/C [48] was 0.62% and the viability, T/C [31] was 1.4%. It also gave a viability, T/C [32] of 1.82%, a viability, T/C [33] of 0.83% and a viability, T/C [34] of 0.55%.

In the case of `COc1c(OCCCN2CCOCC2)ccc2c3n(c(=NC(=O)c4cnc(N)nc4)nc12)CCN3` + CN1CCN(c2cc(C(=O)Nc3cc4cc(-c5cnn(C)c5)ccc4cn3)ccn2)CC1, the IC50 (second compound 0.0316 µM) is reported as 27 nM, the IC50 (second compound 0.1 µM) is reported as 7.37 nM and the IC50 (second compound 0.316 µM) is reported as < 3.16 nM. The IC50 (second compound 1 µM) was < 3.16 nM, the IC50 (second compound 3.16 µM) was < 3.16 nM and the IC50 (second compound 10 µM) was < 3.16 nM. The viability, T/C [37] was 93.9%, the viability, T/C [38] was 69% and the viability, T/C [1] was 50%. The viability, T/C [2] was 25.4%, the viability, T/C [3] was 14.8% and the viability, T/C [4] was 12.5%. It also gave a viability, T/C [39] of 68.3%, a viability, T/C [40] of 43% and a viability, T/C [7] of 21.3%. For the same compound, the viability, T/C [8] was 7.94%, the viability, T/C [9] was 6.07% and the viability, T/C [10] was 5.15%. The viability, T/C [41] was 20%, the viability, T/C [42] was 11.7% and the viability, T/C [13] was 3.4%. The viability, T/C [14] was 1.12%, the viability, T/C [15] was 1.11% and the viability, T/C [16] was 0.75%. The viability, T/C [43] was 2.09%, the viability, T/C [44] was 0.39% and the viability, T/C [19] was 0.99%. It also gave a viability, T/C [20] of 0.18%, a viability, T/C [21] of 0.78% and a viability, T/C [22] of 0.88%. For the same compound, the viability, T/C [45] was 2.33%, the viability, T/C [46] was 1.2% and the viability, T/C [25] was 1.43%. It also gave a viability, T/C [26] of 0.42%, a viability, T/C [27] of 0.95% and a viability, T/C [28] of 0.47%. For the same compound, the viability, T/C [47] was 0.65%, the viability, T/C [48] was 0.74% and the viability, T/C [31] was 0.78%. The viability, T/C [32] was 0.76%, the viability, T/C [33] was 1.19% and the viability, T/C [34] was 0.45%.
